In EP3046573B1, “AMYLIN ANALOGUES” (Zealand Pharma A/S, priority 2013, dated 2015):
Numbered stars: 1 amine (or outer) side, 2 acyl side, 3 side chain; on linkers, the order of the positions; unused ones are H or OH. Bridge positions count the residues as written; N and C are the ends. Square brackets hold non-standard residues; d marks the D form. Peptide text beside a SMILES is read from it. * marks the point of attachment. C20 diacid = O=C(O)CCCCCCCCCCCCCCCCCCC(=O)*; γGlu = O=C(O)[C@H](CCC(=O)[*:2])N[*:1]; NMeI = CC[C@H](C)[C@H](NC)C(=O)O; Sar = CNCC(=O)O

Key:
[1] = biological target: T1, human calcitonin receptor (hCTR2) (Homo sapiens, UniProt P30988); experiment: hCTR2 assay: induction of cAMP (AlphaScreen cAMP Assay kit) in COS7 cells expressing hCTR2; format: cell-based; details: cAMP induction in COS7 cells expressing hCTR2; average of a minimum of 3 determinations; read-out: hCTR2 EC50
T1 construct: expressed in transfected cells
T1 sequence (P30988 25-474): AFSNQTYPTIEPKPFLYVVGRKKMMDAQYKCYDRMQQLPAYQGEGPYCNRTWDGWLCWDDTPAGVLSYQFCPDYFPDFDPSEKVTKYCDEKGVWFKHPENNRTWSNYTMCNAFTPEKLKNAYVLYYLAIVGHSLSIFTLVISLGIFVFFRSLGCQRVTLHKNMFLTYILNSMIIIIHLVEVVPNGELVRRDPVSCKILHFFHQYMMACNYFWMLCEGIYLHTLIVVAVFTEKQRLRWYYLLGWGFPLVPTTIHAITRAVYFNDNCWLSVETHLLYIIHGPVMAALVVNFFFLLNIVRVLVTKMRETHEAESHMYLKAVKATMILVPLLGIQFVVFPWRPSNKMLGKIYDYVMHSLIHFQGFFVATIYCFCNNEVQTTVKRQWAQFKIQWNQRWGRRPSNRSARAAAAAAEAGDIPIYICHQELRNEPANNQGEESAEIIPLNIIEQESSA
Outline: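 Peptide-induced cAMP in hCTR2-expressing COS7 cells, 15 min at 37° C with phosphodiesterase inhibitor IBMX (100 µM), detected by AlphaScreen; potency from 4PL curves.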

Sprague Dawley (SD) rats = experiment: Acute food intake and body weight in normal Sprague Dawley rats; format: in vivo; details: vehicle-corrected, dose 30 nmol/kg sc, once; for Body weight loss (%) after 96 hours: mean ± SEM, n = 8
Procedure: Sprague Dawley (SD) rats were obtained from Taconic A/S, Denmark. The animals arrived at least 7 days before the study start to allow acclimatization to experimental conditions. From arrival and throughout the study, the rats were housed in groups of 2 (n = 2) in a light-, temperature- and humidity-controlled room (reversed 12/12 h light/dark cycle: lights turned off during day-time and on during night-time; temperature 20-22°C; relative humidity 50-80%). Animals had access ad libitum to food (Altromin™ 1324, Brogaarden A/S, Gentofte, Denmark) and water (domestic quality tap water with citric acid added to pH ∼ 3.6) during the entire study. Stratification of rats was based on body weight (BW) on a cage-by-cage basis; mean BWs per cage were used as the basis for pairing four cages together in a group (n = 8 per group). A vehicle group and positive control group were included in each set of tests. Rats were dosed subcutaneously (sc) once in the morning immediately before turning off the lights, using a body weight-corrected dose of peptide (30 nmol/kg). Dosing volume was 5 ml/kg. Food intake was recorded manually at t = 0 (pre-dose) and at t = 4, 7, 10, 24, 48, 72 and 96 hours after dosing. Body weight was measured daily.
Statistical analyses on body weight were performed using GraphPad™ Prism version 5. The measured parameters were compared using unpaired t tests. Differences were considered statistically significant at p < 0.05. Data are means ± SEM; n =8.

[2] = Solubility assessment (turbidity absorbance at 325 nm); format: physicochemical; details: stock 2 mg/ml diluted 1:1, ambient temperature (typically 25°C), n=1; for Solubility, Acetate buffer pH 4: 100 mM acetate buffer pH 4.0; for Solubility, Acetate buffer pH 5: 100 mM acetate buffer pH 5.0; for Solubility, Histidine buffer pH 6: 100 mM histidine buffer pH 6.0; for Solubility, Histidine buffer pH 7: 100 mM histidine buffer pH 7.0; for Solubility, Phosphate buffer pH 6: 100 mM phosphate buffer pH 6.0; for Solubility, Phosphate buffer pH 7: 100 mM phosphate buffer pH 7.0; for Solubility, Phosphate buffer pH 7.5: 100 mM phosphate buffer pH7.5
Outline: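 Turbidimetric screen across pH 4.0–7.5 in 100 mM acetate, histidine and phosphate buffers. A 2 mg/ml peptide stock (pH 2.5) was diluted 1:1 into each, then A325 measured at ambient temperature; values ≤ 0.02 AU denoted solubility of 1 mg/ml or more.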

Row | SMILES | EC50 [1] [nM] | Food intake inhibition (%) after 48 hours (Sprague Dawley (SD) rats) [%] | Body weight loss (%) after 96 hours (Sprague Dawley (SD) rats) [%] | Solubility, Acetate buffer pH 4 [2] | Solubility, Acetate buffer pH 5 [2] | Solubility, Histidine buffer pH 6 [2] | Solubility, Histidine buffer pH 7 [2] | Solubility, Phosphate buffer pH 6 [2] | Solubility, Phosphate buffer pH 7 [2] | Solubility, Phosphate buffer pH 7.5 [2]
1 | CC[C@H](C)[C@@H](C(=O)N[C@@H](CC(C)C)C(=O)N[C@@H](CO)C(=O)N[C@@H](CO)C(=O)N[C@H](C(=O)N[C@@H](CCC(=O)O)C(=O)N[C@H](C(=O)NCC(=O)N[C@@H](CO)C(=O)N[C@@H](CCC(=O)O)C(=O)N[C@H](C(=O)N1CCC[C@H]1C(N)=O)[C@@H](C)O)C(C)C)[C@@H](C)O)N(C)C(=O)[C@H](C)NC(=O)CN(C)C(=O)[C@H](Cc1ccccc1)NC(=O)[C@H](CO)NC(=O)[C@H](CO)NC(=O)[C@H](CO)NC(=O)[C@H](CO)NC(=O)[C@H](CCCNC(=N)N)NC(=O)[C@H](Cc1c[nH]cn1)NC(=O)[C@H](CC(C)C)NC(=O)[C@H](Cc1ccccc1)NC(=O)[C@H](CCC(=O)O)NC(=O)[C@H](C)NC(=O)[C@H](CC(C)C)NC(=O)[C@H](CCCNC(=N)N)NC(=O)[C@H](C)NC(=O)[C@@H](NC(=O)[C@H](C)NC(=O)[C@@H]1CSSC[C@H](NC(=O)[C@H](CCCNC(=N)N)NC(=O)CC[C@H](NC(=O)CCCCCCCCCCCCCCCCCCC(=O)O)C(=O)O)C(=O)N[C@@H](CC(N)=O)C(=O)N[C@@H]([C@@H](C)O)C(=O)N[C@@H](C)C(=O)N[C@@H]([C@@H](C)O)C(=O)N1)[C@@H](C)O [Compound 118, [19CD]-isoGlu-RC()NTATC()ATARLAEFLHRSSSSF-Gly(Me)-A-Ile(Me)-LSSTEVGSETP-NH2] ({C20 diacid-γGlu}-RCNTATCATARLAEFLHRSSSSF[Sar]A[NMeI]LSSTEVGSETP-NH2; disulfide 2-7) | 0.062 | 93 | 13 ± 1.8 | – | – | – | – | – | – | –
2 | CC[C@H](C)[C@H](NC(=O)[C@@H]1CCCN1C(=O)CNC(=O)[C@H](Cc1ccccc1)NC(=O)[C@H](CC(N)=O)NC(=O)[C@H](CC(N)=O)NC(=O)[C@H](CO)NC(=O)[C@H](CO)NC(=O)[C@H](Cc1c[nH]cn1)NC(=O)[C@H](Cc1c[nH]cn1)NC(=O)[C@H](CC(C)C)NC(=O)[C@H](Cc1ccccc1)NC(=O)[C@H](CCC(=O)O)NC(=O)[C@H](C)NC(=O)[C@H](CC(C)C)NC(=O)[C@H](CCCNC(=N)N)NC(=O)[C@H](CCC(N)=O)NC(=O)[C@@H](NC(=O)[C@H](C)NC(=O)[C@@H]1CSSC[C@H](NC(=O)[C@H](CCCNC(=N)N)NC(=O)CC[C@H](NC(=O)CCCCCCCCCCCCCCCCCCC(=O)O)C(=O)O)C(=O)N[C@@H](CC(N)=O)C(=O)N[C@@H]([C@@H](C)O)C(=O)N[C@@H](C)C(=O)N[C@@H]([C@@H](C)O)C(=O)N1)[C@@H](C)O)C(=O)N[C@@H](CC(C)C)C(=O)N1CCC[C@H]1C(=O)N1CCC[C@H]1C(=O)N[C@H](C(=O)N[C@@H](CC(N)=O)C(=O)N[C@H](C(=O)NCC(=O)N[C@@H](CO)C(=O)N[C@@H](CC(N)=O)C(=O)N[C@H](C(=O)N1CCC[C@H]1C(N)=O)[C@@H](C)O)C(C)C)[C@@H](C)O [NN96, N-α-[(S)-4-carboxy-4-(19-carboxynonadecanoylamino)butyryl]-[Arg1,Glu14,His17,Pro37]-pramlintide, reference compound] ({C20 diacid-γGlu}-RCNTATCATQRLAEFLHHSSNNFGPILPPTNVGSNTP-NH2; disulfide 2-7) | 0.089 | – | – | SS (SS indicates solubility ≥ 1mg/ml) | SS (SS indicates solubility ≥ 1mg/ml) | SS (SS indicates solubility ≥ 1mg/ml) | SS (SS indicates solubility ≥ 1mg/ml) | SS (SS indicates solubility ≥ 1mg/ml) | SS (SS indicates solubility ≥ 1mg/ml) | SS (SS indicates solubility ≥ 1mg/ml)
3 | CC[C@H](C)[C@@H](C(=O)N[C@@H](CC(C)C)C(=O)N[C@@H](CO)C(=O)N[C@@H](CO)C(=O)N[C@H](C(=O)N[C@@H](CC(N)=O)C(=O)N[C@H](C(=O)NCC(=O)N[C@@H](CO)C(=O)N[C@@H](CC(N)=O)C(=O)N[C@H](C(=O)N1CCC[C@H]1C(N)=O)[C@@H](C)O)C(C)C)[C@@H](C)O)N(C)C(=O)[C@H](C)NC(=O)CN(C)C(=O)[C@H](Cc1ccccc1)NC(=O)[C@H](CC(N)=O)NC(=O)[C@H](CC(N)=O)NC(=O)[C@H](CO)NC(=O)[C@H](CO)NC(=O)[C@H](Cc1c[nH]cn1)NC(=O)[C@H](Cc1c[nH]cn1)NC(=O)[C@H](CC(C)C)NC(=O)[C@H](Cc1ccccc1)NC(=O)[C@H](CCC(=O)O)NC(=O)[C@H](C)NC(=O)[C@H](CC(C)C)NC(=O)[C@H](CCCNC(=N)N)NC(=O)[C@H](CCC(N)=O)NC(=O)[C@@H](NC(=O)[C@H](C)NC(=O)[C@@H]1CSSC[C@H](NC(=O)[C@H](CCCNC(=N)N)NC(=O)CC[C@H](NC(=O)CCCCCCCCCCCCCCCCCCC(=O)O)C(=O)O)C(=O)N[C@@H](CC(N)=O)C(=O)N[C@@H]([C@@H](C)O)C(=O)N[C@@H](C)C(=O)N[C@@H]([C@@H](C)O)C(=O)N1)[C@@H](C)O [Compound 1, [19CD]-isoGlu-RC()NTATC()ATQRLAEFLHHSSNNF-Gly(Me)-A-Ile(Me)-LSSTNVGSNTP-NH2] ({C20 diacid-γGlu}-RCNTATCATQRLAEFLHHSSNNF[Sar]A[NMeI]LSSTNVGSNTP-NH2; disulfide 2-7) | – | 98 | 9 ± 1.8 | SS (SS indicates solubility ≥ 1mg/ml) | SS (SS indicates solubility ≥ 1mg/ml) | SS (SS indicates solubility ≥ 1mg/ml) | SS (SS indicates solubility ≥ 1mg/ml) | SS (SS indicates solubility ≥ 1mg/ml) | SS (SS indicates solubility ≥ 1mg/ml) | SS (SS indicates solubility ≥ 1mg/ml)
4 | CC[C@H](C)[C@@H](C(=O)N[C@@H](CC(C)C)C(=O)N1CCC[C@H]1C(=O)N1CCC[C@H]1C(=O)N[C@H](C(=O)N[C@@H](CC(N)=O)C(=O)N[C@H](C(=O)NCC(=O)N[C@@H](CO)C(=O)N[C@@H](CC(N)=O)C(=O)N[C@H](C(=O)N1CCC[C@H]1C(N)=O)[C@@H](C)O)C(C)C)[C@@H](C)O)N(C)C(=O)CN(C)C(=O)[C@H](Cc1ccccc1)NC(=O)[C@H](CC(N)=O)NC(=O)[C@H](CC(N)=O)NC(=O)[C@H](CO)NC(=O)[C@H](CO)NC(=O)[C@H](Cc1c[nH]cn1)NC(=O)[C@H](Cc1c[nH]cn1)NC(=O)[C@H](CC(C)C)NC(=O)[C@H](Cc1ccccc1)NC(=O)[C@H](CCC(=O)O)NC(=O)[C@H](C)NC(=O)[C@H](CC(C)C)NC(=O)[C@H](CCCNC(=N)N)NC(=O)[C@H](CCC(N)=O)NC(=O)[C@@H](NC(=O)[C@H](C)NC(=O)[C@@H]1CSSC[C@H](NC(=O)[C@H](CCCNC(=N)N)NC(=O)CC[C@H](NC(=O)CCCCCCCCCCCCCCCCCCC(=O)O)C(=O)O)C(=O)N[C@@H](CC(N)=O)C(=O)N[C@@H]([C@@H](C)O)C(=O)N[C@@H](C)C(=O)N[C@@H]([C@@H](C)O)C(=O)N1)[C@@H](C)O [Compound 176, [19CD]-isoGlu-RC()NTATC()ATQRLAEFLHHSSNNF-Gly(Me)-Ile(Me)-LPPTNVGSNTP-NH2] ({C20 diacid-γGlu}-RCNTATCATQRLAEFLHHSSNNF[Sar][NMeI]LPPTNVGSNTP-NH2; disulfide 2-7) | 0.12 | – | – | SS (SS indicates solubility ≥ 1mg/ml) | SS (SS indicates solubility ≥ 1mg/ml) | SS (SS indicates solubility ≥ 1mg/ml) | SS (SS indicates solubility ≥ 1mg/ml) | SS (SS indicates solubility ≥ 1mg/ml) | SS (SS indicates solubility ≥ 1mg/ml) | SS (SS indicates solubility ≥ 1mg/ml)
